The subject of this series is rats. Nature of the series: In vivo MR imaging (dynamic time-resolved MR angiography, 3d-FLASH) of blood vessels. On the procedure: Dynamic time-resolved MR angiography and 3d-FLASH images of rats were acquired using a wrist coil on a 3 T MRI scanner before and after the injection of 3 nm iron oxide nanoparticles capped by PO-PEG, prepared according to example 13 (dose: 2.5 mg Fe/kg). The pre-contrast images were subtracted from post-contrast images, and the resulting images were reconstructed using maximum intensity projection (MIP) protocol with OsriX (Version 3.8.1; 32 bit; OsiriX foundation, Geneva). Dynamic time-resolved MR angiography was obtained with an interpolated temporal resolution of 1.25 second and the following parameters: flip angle=20, ETL=1, TR=3.1 ms, TE=1.13 ms, field of view FOV=75×140 mm^2, matrix=256×106, slice thickness/gap=2.5 mm/0 mm, and NEX=1. The imaging parameters of 3d-FLASH are as follows: flip angle=25, ETL=1, TR=25 ms, TE=5.1 ms, field of view FOV=110×65 mm^2, matrix=256×169, slice thickness/gap=1.0 mm/0 mm, and NEX=2.
MR imaging using the 3 nm nanoparticles capped by glucose 6-phosphate was performed according to example 16.

For the compound `O=C([O-])CN1CCN(CC(=O)[O-])CCN([C@H](CO)[C@H](O)CO)CCN(CC(=O)[O-])CC1.[Gd+3]` (racemic) [Gadovist], the “contrast effect of in vivo MR image immediately after the injection” value (immediately after the injection) was “high contrast effect”. Further, the “time in which the bright signal vanished” value (in vivo MR image after injection) was found to be 2 min. The blood half-life result (in words) is on record as “short blood half-life”.

Source of the values: patent US9861712B2, “Preparation of extremely small and uniform sized, iron oxide-based paramagnetic or pseudo-paramagnetic nanoparticles and MRI T1 contrast agents using the same” (Hanwha Chemical Corporation, priority 2010, dated 2018).
